Converted amounts (≈) assume the structure as drawn.
Columns and labels:
Assay type in all cases: cell-based
S. aureus (ATCC 29213) = assay: Antibacterial susceptibility testing (MIC, broth microdilution or agar dilution), S. aureus; details: Staphylococcus aureus, ATCC29213; read-out: S. aureus (ATCC 29213) minimal inhibitory concentration (MIC)
In short: (§1)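 MICs by CLSI (M7-A7) broth microdilution or agar dilution, against reference ATCC strains as listed.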

[1] = test system: H. influenzae (ATCC 49247); assay: Antibacterial susceptibility testing (MIC, broth microdilution or agar dilution), H. influenzae; details: Haemophilus influenzae, ATCC49247; read-out: H. influenzae (ATCC 49247) minimal inhibitory concentration (MIC)
Description: (§2) Compounds of the invention were tested for antimicrobial activity by susceptibility testing in liquid or on solid media. MICs for compounds against each strain were determined by the broth microdilution or agar dilution method according to the guidelines of the Clinical Laboratories and Standards Institute, formerly the National Committee for Clinical Laboratory Standards (Clinical Laboratories and Standards Institute. Methods for Dilution Antimicrobial Susceptibility Tests for Bacteria That Grow Aerobically; Approved Standard—Seventh Edition. Document M7-A7. CLSI, Wayne, Pa., 2006; Clinical Laboratories and Standards Institute. The Gram positive bacterial strains tested include S. aureus (Staphylococcus aureus (Isolate ID ATCC 29213)), E. faecalis (Enterococcus faecalis (Isolate ID ATCC 29212)) and S. pyogenes (Streptococcus pyogenes (Isolate ID ATCC 51339)). The Gram negative bacterial strains tested include H. influenzae (Haemophilus influenzae (Isolate ID ATCC 49247)).

E. faecalis (ATCC 29212) = assay: Antibacterial susceptibility testing (MIC, broth microdilution or agar dilution), E. faecalis; details: Enterococcus faecalis, ATCC29212; read-out: E. faecalis (ATCC 29212) minimal inhibitory concentration (MIC)
Description: as §2

S. pyogenes (ATCC 51339) = assay: Antibacterial susceptibility testing (MIC, broth microdilution or agar dilution), S. pyogenes; details: Streptococcus pyogenes, ATCC51339; read-out: S. pyogenes (ATCC 51339) minimal inhibitory concentration (MIC)
In short: as §1

| Structure (SMILES) | MIC (S. aureus (ATCC 29213)) | MIC [1] | MIC (E. faecalis (ATCC 29212)) | MIC (S. pyogenes (ATCC 51339)) |
| --- | --- | --- | --- | --- |
| CCNC(=O)Nc1cc(Nc2ccccc2)c(C(=O)Nc2ccc(CCC(=O)N(C)OC)cc2)cn1 [Compound 123, 6-(3-Ethylureido)-N-(4-(3-(methoxy(methyl)amino)-3-oxopropyl)phenyl)-4-(phenylamino)nicotinamide] | ≤ 1 µg/mL | 8 µg/mL (≈ 16.3 µM) | – | ≤ 1 µg/mL |
| CCNC(=O)Nc1cc(Nc2ccccc2)c(C(=O)Nc2ccc(CCC(=O)O)cc2)cn1 [Compound 78, 3-[4-[[4-anilino-6-(ethylcarbamoylamino)pyridine-3-carbonyl]amino]phenyl]propanoic acid] | ≤ 1 µg/mL | 2 µg/mL (≈ 4.47 µM) | – | ≤ 1 µg/mL |
| CCNC(=O)Nc1cc(Nc2ccccc2)c(C(=O)Nc2ccc(CCC(=O)OC)cc2)cn1 [Compound 77] | ≤ 1 µg/mL | 2 µg/mL (≈ 4.33 µM) | – | ≤ 1 µg/mL |
| CCNC(=O)Nc1cc(Nc2ccccc2)c(C(=O)Nc2ccc(CC(=O)OCC)cc2)cn1 [Compound 70, ethyl 2-(4-(6-(3-ethylureido)-4-(phenylamino)nicotinamido)phenyl)acetate] | ≤ 1 µg/mL | 2 µg/mL (≈ 4.33 µM) | – | ≤ 1 µg/mL |
| CCNC(=O)Nc1cc(Nc2ccccc2)c(C(=O)Nc2ccc(CC(=O)O)cc2)cn1 [Compound 71, 2-(4-(6-(3-ethylureido)-4-(phenylamino)nicotinamido)phenyl)acetic acid] | 16 µg/mL (≈ 36.9 µM) | 2 µg/mL (≈ 4.61 µM) | – | ≤ 1 µg/mL |
| CCNC(=O)Nc1cc(Nc2ccccc2)c(C(=O)Nc2ccc(C(=O)OC)cc2)cn1 [Compound 67, methyl 4-(6-(3-ethylureido)-4-(phenylamino)nicotinamido)benzoate] | ≤ 1 µg/mL | 4 µg/mL (≈ 9.23 µM) | – | ≤ 1 µg/mL |
| CCNC(=O)Nc1cc(Nc2ccccc2)c(C(=O)Nc2ccnc(C)c2)cn1 [Compound 90, 6-(3-ethylureido)-N-(2-methylpyridin-4-yl)-4-(phenylamino)nicotinamide] | ≤ 1 µg/mL | 8 µg/mL (≈ 20.5 µM) | – | ≤ 1 µg/mL |
| CCNC(=O)Nc1cc(Nc2cccc(Cl)c2)c(C(=O)Nc2ccc(CC(C)(C)C(=O)O)cc2)cn1 [Compound 177, 3-{4-[({4-[(3-chlorophenyl)amino]-6-[(ethylcarbamoyl)amino]pyridin-3-yl}carbonyl)amino]phenyl}-2,2-dimethylpropanoic acid] | ≤ 1 µg/mL | 4 µg/mL (≈ 7.84 µM) | – | – |
| CCNC(=O)Nc1cc(Nc2ccccc2)c(C(=O)Nc2cnc(NCC3(C(=O)O)CCC3)nc2)cn1 [Compound 168, 1-[({5-[({6-[(ethylcarbamoyl)amino]-4-(phenylamino)pyridin-3-yl}carbonyl)amino]pyrimidin-2-yl}amino)methyl] cyclobutanecarboxylic acid] | 2 µg/mL (≈ 3.96 µM) | 8 µg/mL (≈ 15.9 µM) | – | – |
| CCNC(=O)Nc1cc(Nc2ccccc2)c(C(=O)Nc2ccc([C@@H]3C[C@H]3C(=O)O)cc2)cn1 [Compound 169] | 2 µg/mL (≈ 4.35 µM) | 2 µg/mL (≈ 4.35 µM) | – | – |
| CCNC(=O)Nc1cc(Nc2ccc(Cl)cc2)c(C(=O)Nc2ccc(CCC(=O)OC)cc2)cn1 [Compound 148, methyl 3-{4-[({4-[(4-chlorophenyl)amino]-6-[(ethylcarbamoyl)amino]pyridin-3-yl}carbonyl)amino]phenyl}propanoate] | ≤ 1 µg/mL | 4 µg/mL (≈ 8.07 µM) | – | – |
| CCNC(=O)Nc1cc(Nc2ccc(Cl)cc2)c(C(=O)Nc2ccc(CCC(=O)O)cc2)cn1 [Compound 149, 3-{4-[({4-[(4-chlorophenyl)amino]-6-[(ethylcarbamoyl)amino]pyridin-3-yl}carbonyl)amino]phenyl}propanoic acid] | ≤ 1 µg/mL | 4 µg/mL (≈ 8.3 µM) | – | – |
| CCNC(=O)Nc1cc(Nc2ccccc2)c(C(=O)Nc2ccc(CC(C)(C)C(=O)O)cc2)cn1 [Compound 130, 3-(4-(6-(3-ethylureido)-4-(phenylamino)nicotinamido)phenyl)-2,2-dimethylpropanoic acid] | ≤ 1 µg/mL | 4 µg/mL (≈ 8.41 µM) | – | ≤ 1 µg/mL |
| CCNC(=O)Nc1cc(Nc2ccccc2)c(C(=O)Nc2ccc(CCC(=O)O)nc2)cn1 [Compound 166, 3-{5-[({6-[(ethylcarbamoyl)amino]-4-(phenylamino)pyridin-3-yl}carbonyl)amino]pyridin-2-yl}propanoic acid] | 16 µg/mL (≈ 35.7 µM) | 8 µg/mL (≈ 17.8 µM) | – | – |
| CCNC(=O)Nc1cc(Nc2ccccc2)c(C(=O)Nc2cc(C(=O)O)n(C)c2)cn1 [Compound 103, 4-(6-(3-ethylureido)-4-(phenylamino)nicotinamido)-1-methyl-1H-pyrrole-2-carboxylic acid] | 4 µg/mL (≈ 9.47 µM) | 4 µg/mL (≈ 9.47 µM) | – | ≤ 1 µg/mL |
| CCNC(=O)Nc1cc(Nc2ccccc2)c(C(=O)Nc2ccc(C(=O)O)cc2)cn1 [Compound 68, 4-(6-(3-ethylureido)-4-(phenylamino)nicotinamido)benzoic acid] | 8 µg/mL (≈ 19.1 µM) | 4 µg/mL (≈ 9.54 µM) | – | ≤ 1 µg/mL |
| CCNC(=O)Nc1cc(Nc2ccc(C(F)(F)F)cc2)c(C(=O)Nc2ccc(CCC(=O)O)cc2)cn1 [Compound 176, 3-[4-[[6-(ethylcarbamoylamino)-4-[4-(trifluoromethyl)anilino]pyridine-3-carbonyl]amino]phenyl]propanoic acid] | ≤ 1 µg/mL | 4 µg/mL (≈ 7.76 µM) | – | – |

Other lines, results leading:

| MIC (S. aureus (ATCC 29213)) | MIC [1] | MIC (E. faecalis (ATCC 29212)) | MIC (S. pyogenes (ATCC 51339)) | Structure (SMILES) |
| --- | --- | --- | --- | --- |
| ≤ 1 µg/mL | ≤ 1 µg/mL | ≤ 1 µg/mL | – | CCNC(=O)Nc1cc(Nc2ccc(F)cc2F)c(C(=O)Nc2ccc(CCC(=O)O)cc2)cn1 [Compound 230, 3-{4-[({4-[(2,4-difluorophenyl)amino]-6-[(ethylcarbamoyl)amino]pyridin-3-yl}carbonyl)amino]phenyl}propanoic acid] |
| ≤ 1 µg/mL | ≤ 1 µg/mL | ≤ 1 µg/mL | – | CCNC(=O)Nc1cc(Nc2ccc(C)c(F)c2)c(C(=O)Nc2ccc(CCC(=O)O)cc2)cn1 [Compound 222, 3-{4-[({6-[(ethylcarbamoyl)amino]-4-[(3-fluoro-4-methylphenyl)amino]pyridin-3-yl}carbonyl)amino]phenyl}propanoic acid] |
| ≤ 1 µg/mL | 2 µg/mL (≈ 3.49 µM) | ≤ 1 µg/mL | – | CCNC(=O)Nc1cc(Nc2cccc(S(F)(F)(F)(F)F)c2)c(C(=O)Nc2ccc(CCC(=O)O)cc2)cn1 [Compound 237, 3-(4-{[(6-[(ethylcarbamoyl)amino]-4-{[3-(pentafluorothio)phenyl]amino}pyridin-3-yl)carbonyl]amino}phenyl)propanoic acid] |
| 2 µg/mL (≈ 4 µM) | 2 µg/mL (≈ 4 µM) | ≤ 1 µg/mL | – | CCNC(=O)Nc1cc(Nc2cccc(C#N)c2)c(C(=O)Nc2ccc(CC(C)(C)C(=O)O)cc2)cn1 [Compound 199, 3-{4-[({4-[(3-cyanophenyl)amino]-6-[(ethylcarbamoyl)amino]pyridin-3-yl}carbonyl)amino]phenyl}-2,2-dimethylpropanoic acid] |
| 4 µg/mL (≈ 8.8 µM) | 4 µg/mL (≈ 8.8 µM) | ≤ 1 µg/mL | – | CCNC(=O)Nc1cc(Nc2ccccc2)c(C(=O)Nc2ccc(S(N)(=O)=O)cc2)cn1 [Compound 231, 6-[(ethylcarbamoyl)amino]-4-(phenylamino)-N-(4-sulfamoylphenyl)pyridine-3-carboxamide] |
| ≤ 1 µg/mL | ≤ 1 µg/mL | ≤ 1 µg/mL | – | CCNC(=O)Nc1cc(Nc2cccc(C(F)(F)F)c2)c(C(=O)Nc2ccc(CCC(=O)O)cc2)cn1 [Compound 240, 3-(4-{[(6-[(ethylcarbamoyl)amino]-4-{[3-(trifluoromethyl)phenyl]amino}pyridin-3-yl)carbonyl]amino}phenyl)propanoic acid] |
| ≤ 1 µg/mL | 8 µg/mL (≈ 17.3 µM) | – | – | CCNC(=O)Nc1cc(Nc2ccccc2)c(C(=O)Nc2ccc(CCC(=O)OC)nc2)cn1 [Compound 179, methyl 3-{5-[({6-[(ethylcarbamoyl)amino]-4-(phenylamino)pyridin-3-yl}carbonyl)amino]pyridin-2-yl}propanoate] |
| 8 µg/mL (≈ 16.5 µM) | 4 µg/mL (≈ 8.26 µM) | ≤ 1 µg/mL | – | CCNC(=O)Nc1cc(Nc2ccccc2)c(C(=O)Nc2ccc(-n3cccc3C(=O)O)cc2)cn1 [Compound 198, 1-{4-[({6-[(ethylcarbamoyl)amino]-4-(phenylamino)pyridin-3-yl}carbonyl)amino]phenyl}-1H-pyrrole-2-carboxylic acid] |
| ≤ 1 µg/mL | 2 µg/mL (≈ 4.05 µM) | – | – | CCNC(=O)Nc1cc(Nc2ccc(Cl)cc2)c(C(=O)Nc2ccc([C@@H]3C[C@H]3C(=O)O)cc2)cn1 [Compound 192, (1R,2R)-2-{4-[({4-[(4-chlorophenyl)amino]-6-[(ethylcarbamoyl)amino]pyridin-3-yl}carbonyl)amino]phenyl}cyclopropanecarboxylic acid] |
| ≤ 1 µg/mL | 4 µg/mL (≈ 7.84 µM) | – | – | CCNC(=O)Nc1cc(Nc2ccccc2Cl)c(C(=O)Nc2ccc(CC(C)(C)C(=O)O)cc2)cn1 [Compound 183, 3-{4-[({4-[(2-chlorophenyl)amino]-6-[(ethylcarbamoyl)amino]pyridin-3-yl}carbonyl)amino]phenyl}-2,2-dimethylpropanoic acid] |
| ≤ 1 µg/mL | 2 µg/mL (≈ 3.82 µM) | – | – | CCNC(=O)Nc1cc(Nc2ccc(OC)c(F)c2)c(C(=O)Nc2ccc(CC(C)(C)C(=O)O)cc2)cn1 [Compound 190, 3-{4-[({6-[(ethylcarbamoyl)amino]-4-[(3-fluoro-4-methoxyphenyl)amino]pyridin-3-yl}carbonyl)amino]phenyl}-2,2-dimethylpropanoic acid] |

— US9060515B2, “Heterocyclic urea compounds” (BIOTA EUROPE LTD, priority 2011, dated 2015)
